According to US20260250250A1, “3-(SULPHONYL OR SULFONIMIDOYL)PROP-2-EN-1-YL]-2-OXO-1,2-DIHYDROPYRIDINE-3-CARBOXAMIDE DERIVATIVES” (Flinder Therapeutics B.V., priority 2022, published 2026):

Columns and labels:
[1] = molecular target: T1, human E3 ubiquitin-protein ligase RNF31 (HOIP) (Homo sapiens, UniProt Q96EP0); test: Cell-free HTRF-based HOIP inhibition assay; format: biochemical
T1 sequence (Q96EP0 695-1072 limits assumed): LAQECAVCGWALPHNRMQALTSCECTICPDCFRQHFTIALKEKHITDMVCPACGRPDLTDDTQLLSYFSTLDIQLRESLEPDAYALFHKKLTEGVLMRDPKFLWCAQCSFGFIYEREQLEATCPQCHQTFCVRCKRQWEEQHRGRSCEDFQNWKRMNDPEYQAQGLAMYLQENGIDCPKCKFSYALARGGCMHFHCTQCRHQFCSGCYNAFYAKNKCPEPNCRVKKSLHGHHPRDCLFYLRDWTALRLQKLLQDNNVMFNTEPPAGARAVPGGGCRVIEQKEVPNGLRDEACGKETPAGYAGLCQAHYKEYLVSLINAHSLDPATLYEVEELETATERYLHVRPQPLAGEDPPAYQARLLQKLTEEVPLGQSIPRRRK
Experimental: This assay was performed in the following steps: • a) synthesis of recombinant fragment of human E3 ubiquitin-protein ligase RNF31 (HOIP), expressed with purity >90% in E. coli system (the protein was prepared as 1 mg/mL stock in a standard formulation); • b) incubation of the compounds in a typical concentration range: 100-0.005 μM, at a final DMSO conc. 1% with a mixture of HOIP and ubiquitin activating enzyme E1 at 25° C., for 1 h at 25° C.; • c) followed by addition of a ubiquitination solution including E2 and substrates (the reaction proceeds for 2.5 h at 25° C.); and • d) HTRF detection was performed using a PHERAstar FSX (BMG Labtech) plate reader (excitation at 337 nm, dual emissions at 665 and 620 nm).

NF-κB signaling pathway = test: Cell-based dual luciferase NF-κB reporter assay (HEK293 cells, TNF stimulated); conditions: Homo sapiens, HEK293
Experimental: Dual-luciferase reporter assay was designed to find inhibitors of HOIP affecting NF-κB signaling pathway. The assay was performed in HEK293 cells which were transfected with plasmids coding for Firefly and NanoLuc luciferases. The NanoLuc luciferase plasmid contains NF-κB response element which determines its expression.
The assay was run following standard dual-luciferase protocols. The assay consists of a few steps: • compounds were dispensed at a concentration range: 100-0.005 μM with a final DMSO concentration of 1% of final volume (25 μL); • cells were stimulated after 30 min with 2.5 ng/mL TNF; and • after 6 h Firefly and NanoLuc luciferase activities are determined according to the procedure described by the manufacturer of Nano-Glo Dual-Luciferase Reporter Assay System.

[2] = tested on: bladder carcinoma RT4 cell line; test: TNF-α-induced cytotoxicity assay (CellTiter-Glo viability); format: cell-based; conditions: Homo sapiens, RT-4, 72 h
Experimental: A viability assay, using bladder carcinoma RT4 cell line, was used for identifying the potential inhibitory effect of tested compounds on HOIP activity. The viability was determined by CellTiter-Glo Luminescent Cell Viability Assay (G7571, Promega) which measures the ability of generating a luminescent signal proportional to the amount of ATP present in living cells. The assay consists of a few steps: • a) the cells were routinely sub cultivated twice a week with standard complete growth medium composition; • b) cells were preparated for the assay by creating a cell suspension at the density of 0.05 mln cells/mL and dispensed into plates (ViewPlate-384, PerkinElmer) resulting in 1000 cells/well; • c) cells were stimulated with 1.25 ng/mL TNFα and with compounds and incubated for 72 h at 37° C. in the atmosphere with 5% CO2; and • d) for detection cytotoxicity was measured with CellTiter-Glo® Luminescent Cell Viability Assay based on the method described by the manufacturer.

| SMILES | IC50 [1] | IC50 (NF-κB signaling pathway) | IC50 [2] |
| --- | --- | --- | --- |
| CC(C)COC(=O)N1CCc2[nH]c(=O)c(C(=O)NC/C=C/S(=O)(=O)c3ccccc3)cc2C1 [Example 119, 2-methylpropyl 3-{[(2E)-3-(benzenesulfonyl)prop-2-en-1-yl]carbamoyl}-2-oxo-1,2,5,6,7,8-hexahydro-1,6-naphthyridine-6-carboxylate] | ≤ 100 nM | ≤ 1000 nM | ≤ 1000 nM |
| Cc1ccc(S(=N)(=O)/C=C/CNC(=O)c2cc3c([nH]c2=O)CCCC3)cc1C (centres unmarked) [Example 58, N-[(2E)-3-[(3,4-dimethylphenyl)(imino)oxo-λ^6-sulfanyl]prop-2-en-1-yl]-2-oxo-1,2,5,6,7,8-hexahydroquinoline-3-carboxamide] | ≤ 100 nM | ≤ 1000 nM | ≤ 1000 nM |
| COc1ccc(S(=N)(=O)/C=C/CNC(=O)c2cc3c([nH]c2=O)CCC(C)C3)cc1F (centres unmarked) [Example 142, N-[(2E)-3-[(3-fluoro-4-methoxyphenyl)(imino)oxo-λ^6-sulfanyl]prop-2-en-1-yl]-6-methyl-2-oxo-1,2,5,6,7,8-hexahydroquinoline-3-carboxamide] | ≤ 1000 nM | ≤ 1000 nM | ≤ 1000 nM |
| COc1ccc(S(=N)(=O)/C=C/CNC(=O)c2cc3c([nH]c2=O)CCN(C(=O)OCC(F)F)C3)cc1F (centres unmarked) [Example 178, 2,2-difluoroethyl 3-{[(2E)-3-[(3-fluoro-4-methoxyphenyl)(imino)oxo-λ^6-sulfanyl]prop-2-en-1-yl]carbamoyl}-2-oxo-1,2,5,6,7,8-hexahydro-1,6-naphthyridine-6-carboxylate] | ≤ 100 nM | ≤ 10000 nM | ≤ 10000 nM |
| CC(C)Oc1ccc(S(=N)(=O)/C=C/CNC(=O)c2cc3c([nH]c2=O)CCCC3)cc1 (centres unmarked) [Example 138, N-[(2E)-3-[imino(oxo)[4-(propan-2-yloxy)phenyl]-λ^6-sulfanyl]prop-2-en-1-yl]-2-oxo-1,2,5,6,7,8-hexahydroquinoline-3-carboxamide] | ≤ 1000 nM | ≤ 1000 nM | ≤ 1000 nM |
| N=S(=O)(/C=C/CNC(=O)c1cc2c([nH]c1=O)CCCC2)c1ccc(OC(F)(F)F)cc1 (centres unmarked) [Example 65, N-[(2E)-3-[imino(oxo)[4-(trifluoromethoxy)phenyl]-%^6-sulfanyl]prop-2-en-1-yl]-2-oxo-1,2,5,6,7,8-hexahydroquinoline-3-carboxamide] | ≤ 1000 nM | ≤ 1000 nM | ≤ 1000 nM |
| O=C(NC/C=C/S(=O)(=O)c1ccc(F)cc1F)c1cc2c([nH]c1=O)CCCC2 [Example 31, N-[(2E)-3-(2,4-difluorobenzenesulfonyl)prop-2-en-1-yl]-2-oxo-1,2,5,6,7,8-hexahydroquinoline-3-carboxamide] | ≤ 100 nM | ≤ 1000 nM | ≤ 1000 nM |
| N=S(=O)(/C=C/CNC(=O)c1cc2c([nH]c1=O)CCCC2)c1ccc(Cl)cc1 (centres unmarked) [Example 131, N-[(2E)-3-[(4-chlorophenyl)(imino)oxo-λ^6-sulfanyl]prop-2-en-1-yl]-2-oxo-1,2,5,6,7,8-hexahydroquinoline-3-carboxamide] | ≤ 100 nM | ≤ 1000 nM | ≤ 1000 nM |
| N=S(=O)(/C=C/CNC(=O)c1cc2c([nH]c1=O)CCCC2)c1cccc(Cl)c1 (centres unmarked) [Example 134, N-[(2E)-3-[(3-chlorophenyl)(imino)oxo-λ^6-sulfanyl]prop-2-en-1-yl]-2-oxo-1,2,5,6,7,8-hexahydroquinoline-3-carboxamide] | ≤ 1000 nM | ≤ 1000 nM | ≤ 1000 nM |
| N=S(=O)(/C=C/CNC(=O)c1cc2c([nH]c1=O)CCN(C(=O)OCC1CC1)C2)c1ccc(F)cc1 (centres unmarked) [Example 68, cyclopropylmethyl 3-{[(2E)-3-[(4-fluorophenyl)(imino)oxo-A*-sulfanyl]prop-2-en-1-yl]carbamoyl}-2-oxo-1,2,5,6,7,8-hexahydro-1,6-naphthyridine-6-carboxylate] | ≤ 100 nM | ≤ 10000 nM | ≤ 10000 nM |
| CC(C)(C)OC(=O)N1CCc2[nH]c(=O)c(C(=O)NC/C=C/S(=O)(=O)c3ccccc3F)cc2C1 [Example 22, tert-butyl 3-{[(2E)-3-(2-fluorobenzenesulfonyl)prop-2-en-1-yl]carbamoyl}-2-oxo-1,2,5,6,7,8-hexahydro-1,6-naphthyridine-6-carboxylate] | ≤ 100 nM | ≤ 1000 nM | ≤ 1000 nM |
| COc1ccc(S(=N)(=O)/C=C/CNC(=O)c2cc3c([nH]c2=O)CCC3)cc1F (centres unmarked) [Example 151, N-[(2E)-3-[(3-fluoro-4-methoxyphenyl)(imino)oxo-λ^6-sulfanyl]prop-2-en-1-yl]-2-oxo-1H,2H,5H,6H,7H-cyclopenta[b]pyridine-3-carboxamide] | ≤ 1000 nM | ≤ 10000 nM | ≤ 1000 nM |
| N=S(=O)(/C=C/CNC(=O)c1cc2c([nH]c1=O)CCCC2)c1cccc(Oc2ccccc2)c1 (centres unmarked) [Example 146, N-[(2E)-3-[imino(oxo)(3-phenoxyphenyl)-λ^6-sulfanyl]prop-2-en-1-yl]-2-oxo-1,2,5,6,7,8-hexahydroquinoline-3-carboxamide] | ≤ 100 nM | ≤ 1000 nM | ≤ 1000 nM |
| O=C(NC/C=C/S(=O)(=O)c1ccccc1)c1cc2c([nH]c1=O)CCN(C(=O)C13CCC(CC1)C3)C2 [Example 110, N-[(2E)-3-(benzenesulfonyl)prop-2-en-1-yl]-6-{bicyclo[2.2.1]heptane-1-carbonyl}-2-oxo-1,2,5,6,7,8-hexahydro-1,6-naphthyridine-3-carboxamide] | ≤ 1000 nM | ≤ 10000 nM | ≤ 10000 nM |
| COc1ccc(S(=N)(=O)/C=C/CNC(=O)c2cc3c([nH]c2=O)CCN(C(=O)OCC2CC2)C3)cc1F (centres unmarked) [Example 98, cyclopropylmethyl 3-{[(2E)-3-[(3-fluoro-4-methoxyphenyl)(imino)oxo-λ^6-sulfanyl]prop-2-en-1-yl]carbamoyl}-2-oxo-1,2,5,6,7,8-hexahydro-1,6-naphthyridine-6-carboxylate] | ≤ 100 nM | ≤ 1000 nM | ≤ 10000 nM |
| COc1ccc(S(=N)(=O)/C=C/CNC(=O)c2cc3c([nH]c2=O)CCCCC3)cc1F (centres unmarked) [Example 150, N-[(2E)-3-[(3-fluoro-4-methoxyphenyl)(imino)oxo-λ^6-sulfanyl]prop-2-en-1-yl]-2-oxo-1H,2H,5H,6H,7H,8H,9H-cyclohepta[b]pyridine-3-carboxamide] | ≤ 1000 nM | ≤ 10000 nM | ≤ 1000 nM |
| CC(C)(C)c1ccc(S(=N)(=O)/C=C/CNC(=O)c2cc3c([nH]c2=O)CCCC3)cc1 (centres unmarked) [Example 61, N-[(2E)-3-[(4-tert-butylphenyl)(imino)oxo-λ^6-sulfanyl]prop-2-en-1-yl]-2-oxo-1,2,5,6,7,8-hexahydroquinoline-3-carboxamide] | – | ≤ 1000 nM | ≤ 1000 nM |
| CCOc1ccc(S(=N)(=O)/C=C/CNC(=O)c2cc3c([nH]c2=O)CCCC3)cc1 (centres unmarked) [Example 62, N-[(2E)-3-[(4-ethoxyphenyl)(imino)oxo-λ^6-sulfanyl]prop-2-en-1-yl]-2-oxo-1,2,5,6,7,8-hexahydroquinoline-3-carboxamide] | – | ≤ 1000 nM | ≤ 1000 nM |
| CN(C)c1ccc(S(=N)(=O)/C=C/CNC(=O)c2cc3c([nH]c2=O)CCCC3)cc1 (centres unmarked) [Example 141, N-[(2E)-3-{[4-(dimethylamino)phenyl](imino)oxo-λ^6-sulfanyl}prop-2-en-1-yl]-2-oxo-1,2,5,6,7,8-hexahydroquinoline-3-carboxamide] | – | ≤ 1000 nM | ≤ 1000 nM |
| COc1ccc(S(=N)(=O)/C=C/CNC(=O)c2cc3c([nH]c2=O)CCC(C(C)C)C3)cc1F (centres unmarked) [Example 144, N-[(2E)-3-[(3-fluoro-4-methoxyphenyl)(imino)oxo-λ^6-sulfanyl]prop-2-en-1-yl]-2-oxo-6-(propan-2-yl)-1,2,5,6,7,8-hexahydroquinoline-3-carboxamide] | – | ≤ 1000 nM | ≤ 1000 nM |
